# Source: US12662714B2, “Method for separation of adjacent lanthanide elements” (UT-Battelle, LLC, priority 2022, dated 2026)
# Tests used:
# [1] = Solvent extraction of Lns, distribution ratio of La; details: 1 M HNO3, 1 h
# Protocol: (§1) General procedure: a 500 microliter (μL) aqueous phase consisting of 7 mM Ln(III) (0.5 mM of each Ln(III)) in 1 M HNO3 without or with aqBLPhen 1 (3, 13, or 25 mM) was contacted with an equal volume of organic phase containing 0.1 M DGA (3, 4, or 5). The two phases were contacted in a 1:1 ratio of organic/aqueous by end-over-end rotation in individual 1.8 mL capacity snap-top Eppendorf tubes using a rotating wheel in an airbox set at 25.5±0.5° C. Contacts were performed in triplicate with a contact time of 1 hour. The samples were centrifuged at 1811 g for 2 min at room temperature to separate the phases. Each triplicate was then sub-sampled, using a 300 μL aliquot of the aqueous phase transferred to individual polypropylene tubes and diluted with 2% HNO3 for analysis using ICP-MS or ICP-OES. Two samples of the initial lanthanide solution were similarly prepared.
# (§2) The ability of 1 and DGA to separate Lns was evaluated using a two-component, immiscible solvent system: nitric acid (aqueous phase containing 1) and n-dodecane with 10 vol % 1-octanol (oil phase containing DGA). The amount of Ln partitioned from the aqueous phase into the oil phase was measured using inductively coupled plasma optical emission spectroscopy or mass spectrometry. The Ln concentration in each phase was then used to calculate the separation efficiency.
# (§3) The percentage of Lns in the aqueous and the oil phases is presented in FIGS. 1a-1i. for each DGA in the absence and presence of the aqueous complexant 1 (E=([Ln1]/[Ln1]0)×100%). The distribution ratios (i.e., D=[Ln1]org/[Ln1]aq) for select Lns are listed in Table 1, which also include selectivities (i.e., SFLn1/Ln2=DLn1/DLn2), for several Ln pairs. An efficient separation of Lns was achieved when DLn1>1 and DLn2<1 or ELn1>50% and ELn2<50%. […] Neither of the three DGAs can separate Lns in a single extraction stage.
# [2] = Solvent extraction of Lns, distribution ratio of Nd; details: 0.1 M DGA, 1 M HNO3, 1 h
# Protocol: as §1, §2, §3
# [3] = Solvent extraction of Lns, distribution ratio of Sm; details: 0.1 M DGA, 1 M HNO3, 1 h
# Protocol: as §1, §2, §3
# [4] = Solvent extraction of Lns, distribution ratio of Gd; details: 0.1 M DGA, 1 M HNO3, 1 h
# Protocol: as §1, §2, §3
# [5] = Solvent extraction of Lns, separation factor Nd/Pr; details: 0.1 M DGA, 1 M HNO3, 1 h
# Protocol: as §1, §2, §3
# [6] = Solvent extraction of Lns, separation factor Sm/Nd; details: 0.1 M DGA, 1 M HNO3, 1 h
# Protocol: as §1, §2, §3
# [7] = Solvent extraction of Lns, separation factor Tb/Gd; details: 0.1 M DGA, 1 M HNO3, 1 h
# Protocol: as §1, §2, §3
# [8] = Solvent extraction of Lns, separation factor Dy/Nd; details: 0.1 M DGA, 1 M HNO3, 1 h
# Protocol: as §1, §2, §3
# [9] = Solvent extraction of Lns, separation factor Gd/La; details: for SFGd/La separation factor: 0.1 M DGA, 1 M HNO3, 1 h
# Protocol: as §1, §2, §3
# [10] = Extraction of 14 Lns from aqueous phase into oil phase; details: 0.1 M DGA alone; 14 Lns 0.5 mM each; 1 M HNO3
# Protocol: as §1, §2, §3
# [11] = Optimized separation of adjacent Ln pair Nd-Pr with 1 and Ligand 3
# Protocol: The synergistic use of 1 and Ligand 3 was further optimized to maximize the separation of one adjacent Ln pair Nd—Pr using the percentage of Ln extracted as a guide. The separation of Nd and Pr reached equilibrium in less than 1 hour, and the D values for both increased at higher HNO3 and Ligand 3 concentrations (FIGS. 3b and 3c). Ligand 3, being a neutral ligand, requires co-extraction of counterions (i.e., three NO3^−) with Ln; thus, the extraction of Lns with DGA is favored at high nitrate concentration, and the process is reversed at low anion concentration.
# The highest selectivity of 4.9±0.2 for Nd—Pr pair was obtained when separating 2.5 mM Nd and Pr, each using 13 mM of 1 in 1 M HNO3 with 0.1 M of Ligand 3 in the oil phase and equilibrating for 30 min at 25.5° C. Next, the recovery of Nd and Pr from each phase after extraction using the 1-Ligand 3-HNO3 system was investigated. […] The charged ligand (CO3^2−) outcompetes neutral ligand 1 in complexing with Ln ions; furthermore, the thermodynamics of the Ln2(CO3)3 formation is highly favorable due to high crystal lattice energy of the salt. The identity of the precipitate was confirmed using Fourier-transform infrared spectroscopy (FTIR), and the results are in good agreement with commercially available Pr and Nd carbonate salts. Ligand 1 remains in the aqueous solution that can be further recycled in the lanthanide separation process.
# [12] = Solvent extraction of Lns, distribution ratio of La; details: 13 mM Ligand 2 used instead of ligand 1; 0.1 M DGA; 1 M HNO3; 1 h
# [13] = Solvent extraction of Lns, distribution ratio of Nd; details: 13 mM Ligand 2 used instead of ligand 1; 0.1 M DGA; 1 M HNO3; 1 h
# [14] = Solvent extraction of Lns, distribution ratio of Sm; details: 13 mM Ligand 2 used instead of ligand 1; 0.1 M DGA; 1 M HNO3; 1 h
# [15] = Solvent extraction of Lns, distribution ratio of Gd; details: 13 mM Ligand 2 used instead of ligand 1; 0.1 M DGA; 1 M HNO3; 1 h
# [16] = Solvent extraction of Lns, separation factor Nd/Pr; details: 13 mM Ligand 2 used instead of ligand 1; 0.1 M DGA; 1 M HNO3; 1 h
# [17] = Solvent extraction of Lns, separation factor Sm/Nd; details: 13 mM Ligand 2 used instead of ligand 1; 0.1 M DGA; 1 M HNO3; 1 h
# [18] = Solvent extraction of Lns, separation factor Dy/Nd; details: 13 mM Ligand 2 used instead of ligand 1; 0.1 M DGA; 1 M HNO3; 1 h
# [19] = Solvent extraction of Lns, separation factor Gd/La; details: 13 mM Ligand 2 used instead of ligand 1; 0.1 M DGA; 1 M HNO3; 1 h
smiles,measurement,setting,value
"CCCCCCCCN(C)C(=O)COCC(=O)N(C)CCCCCCCC [Ligand 3, N,N′-dimethyl-N,N′-di(n-octyl)diglycolamide]",DLa distribution ratio,"[1]; [1] 0 mM, 0.1 M DGA in n-dodecane with 10 vol % 1-octanol, 0.5 mM each Ln",71
same,DLa distribution ratio,"[1]; [1] 3 mM, 0.1 M DGA",0.59
same,DLa distribution ratio,"[1]; [1] 13 mM, 0.1 M DGA",0.28
same,DLa distribution ratio,"[1]; [1] 25 mM, 0.1 M DGA",0.23
same,DNd distribution ratio,[2]; [1] 0 mM,558
same,DNd distribution ratio,[2]; [1] 3 mM,11.0
same,DNd distribution ratio,[2]; [1] 13 mM,10.7
same,DNd distribution ratio,[2]; [1] 25 mM,2.34
same,DSm distribution ratio,[3]; [1] 0 mM,1795
same,DSm distribution ratio,[3]; [1] 3 mM,222
same,DSm distribution ratio,[3]; [1] 13 mM,68.1
same,DSm distribution ratio,[3]; [1] 25 mM,42.2
same,DGd distribution ratio,[4]; [1] 0 mM,2531
same,DGd distribution ratio,[4]; [1] 3 mM,1192
same,DGd distribution ratio,[4]; [1] 13 mM,552
same,DGd distribution ratio,[4]; [1] 25 mM,346
same,SFNd/Pr separation factor,[5]; [1] 0 mM,2.1
same,SFNd/Pr separation factor,[5]; [1] 3 mM,4.0
same,SFNd/Pr separation factor,[5]; [1] 13 mM,4.2
same,SFNd/Pr separation factor,[5]; [1] 25 mM,3.2
same,SFSm/Nd separation factor,[6]; [1] 0 mM,3.2
same,SFSm/Nd separation factor,[6]; [1] 3 mM,20
same,SFSm/Nd separation factor,[6]; [1] 13 mM,6.4
same,SFSm/Nd separation factor,[6]; [1] 25 mM,18
same,SFTb/Gd separation factor,[7]; 13 mM Ligand 2 used instead of ligand 1,1.6
same,SFTb/Gd separation factor,[7]; [1] 0 mM,1.1
same,SFTb/Gd separation factor,[7]; [1] 3 mM,2.0
same,SFTb/Gd separation factor,[7]; [1] 13 mM,3.0
same,SFTb/Gd separation factor,[7]; [1] 25 mM,3.0
same,SFDy/Nd separation factor,[8]; [1] 0 mM,4.7
same,SFDy/Nd separation factor,[8]; [1] 3 mM,352
same,SFDy/Nd separation factor,[8]; [1] 13 mM,451
same,SFDy/Nd separation factor,[8]; [1] 25 mM,1313
same,SFGd/La separation factor,[9]; [1] 0 mM,36
same,SFGd/La separation factor,[9]; [1] 3 mM,2010
same,SFGd/La separation factor,[9]; [1] 13 mM,1992
same,SFGd/La separation factor,[9]; [1] 25 mM,1512
same,times higher selectivity for Gd over La than the TDdDGA-DOODA(C2) system,[9]; combination of 1 and Ligand 3,~2 times
same,times higher selectivity for Gd over La than the TODGA-DOODA(C2) system,[9]; combination of 1 and Ligand 3,20 times
same,extraction of Lns from the aqueous phase into the oil phase,[10],nearly quantitatively extracted all Lns
same,highest selectivity for Nd-Pr pair,"[11]; 2.5 mM Nd and Pr each, 13 mM of 1 in 1 M HNO3, 0.1 M Ligand 3 in oil phase, 30 min, 25.5° C.",4.9±0.2
same,time for the separation of Nd and Pr to reach equilibrium,[11]; 1 and Ligand 3,less than 1 hour
same,recovery of Nd and Pr from the spent oil phase,[11]; three consecutive contacts with an equal volume of deionized water,Near-quantitative recovery
same,DLa distribution ratio,[12],2.65
same,DNd distribution ratio,[13],21.4
same,DSm distribution ratio,[14],163
same,DGd distribution ratio,[15],360
same,SFNd/Pr separation factor,[16],2.3
same,SFSm/Nd separation factor,[17],7.6
same,SFDy/Nd separation factor,[18],60
same,SFGd/La separation factor,[19],136
